Results as given in patent US12509474B2, “Inhibitors of complement factors and uses thereof” (Annexon, Inc., priority 2020, dated 2025).
Where a name gives a salt, the structure may show the parent alone.

Target: T1, human C1s protein (Homo sapiens, UniProt P09871)
T1 construct: A104
T1 sequence (P09871 16-688): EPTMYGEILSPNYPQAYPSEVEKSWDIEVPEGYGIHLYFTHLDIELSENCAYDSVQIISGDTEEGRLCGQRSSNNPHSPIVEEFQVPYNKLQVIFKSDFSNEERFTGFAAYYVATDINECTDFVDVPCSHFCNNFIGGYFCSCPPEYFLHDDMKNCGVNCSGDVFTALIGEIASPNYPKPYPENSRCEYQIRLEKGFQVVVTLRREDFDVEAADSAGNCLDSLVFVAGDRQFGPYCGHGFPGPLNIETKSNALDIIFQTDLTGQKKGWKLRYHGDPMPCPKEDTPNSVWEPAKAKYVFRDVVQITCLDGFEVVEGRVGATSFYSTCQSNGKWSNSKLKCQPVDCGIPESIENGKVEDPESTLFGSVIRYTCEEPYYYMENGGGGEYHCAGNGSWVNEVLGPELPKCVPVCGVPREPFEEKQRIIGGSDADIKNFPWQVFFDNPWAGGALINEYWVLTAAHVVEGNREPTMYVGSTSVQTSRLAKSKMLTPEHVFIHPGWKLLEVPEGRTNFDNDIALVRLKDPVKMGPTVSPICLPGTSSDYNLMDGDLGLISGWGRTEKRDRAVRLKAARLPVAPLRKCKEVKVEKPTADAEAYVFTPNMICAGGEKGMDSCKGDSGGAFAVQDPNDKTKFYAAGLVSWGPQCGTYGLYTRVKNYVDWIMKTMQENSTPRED
Experiment: C1s enzymatic assay (hydrolysis of YLGR-Rh110-dPro)
Assay type: biochemical
Conditions: substrate YLGR-Rh110-dPro 20 μM, 15 min pre-incubation, 60 min RT, fluorescence, read-out: hC1s pIC50 (converted)
Procedure, shortened: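 Fluorogenic assay in which C1s cleaves YLGR-Rh110-dPro (20 μM final) to release fluorescent Rh110, in buffer with 0.1 mg/mL BSA. Enzyme was preincubated 15 min with compound before substrate was added. Compounds were run as 11-point curves, with DMSO as high control and Nafamostat as low control.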

IC50 | SMILES
55 nM | Nc1cnnc2cc(-c3ccc4c(c3)B(O)ON=C4)ccc12 [Example 156, 7-(4-aminocinnolin-7-yl)-1H-2,3,1-benzoxazonin-1-ol Formic Acid Salt]
> 25100 nM | COc1ccc(B(O)O)cc1-c1ccc2c(O)cnnc2c1 [Example 158, [3-(4-hydroxycinnolin-7-yl)-4-methoxyphenyl]boronic Acid]
1.26 nM | O=CO.[2H]C([2H])([2H])Oc1ccc(B(O)O)cc1-c1ccc2c(N)cnnc2c1 [Example 159, [3-(4-aminocinnolin-7-yl)-4-(^2H3)methoxyphenyl]boronic Acid Formic Acid Salt]
> 25100 nM | COc1ccc(B(O)O)cc1-c1ccc2c(O)nncc2c1 [Example 160, [3-(1-hydroxyphthalazin-6-yl)-4-methoxyphenyl]boronic Acid]
> 25100 nM | COc1ccc(B(O)O)cc1-c1ccc2ccncc2c1 [Example 161, [3-(isoquinolin-7-yl)-4-methoxyphenyl]boronic Acid]
> 25100 nM | COc1ccc(B(O)O)cc1-c1cc(OC)c2ccnnc2c1 [Example 162, [4-methoxy-3-(5-methoxycinnoline-7-yl)phenyl]boronic Acid]
1.05 nM | CC(F)(F)Oc1ccc(B(O)O)cc1-c1ccc2c(N)cnnc2c1 [Example 163, [3-(4-aminocinnolin-7-yl)-4-(1,1-difluoroethoxy)phenyl]boronic Acid Formic Acid Salt]
12.6 nM | CS(=O)(=O)c1ccc(B(O)O)cc1-c1ccc2c(N)cnnc2c1 [Example 164, [3-(4-aminocinnolin-7-yl)-4-methylsulfonylphenyl]boronic acid formic acid salt]
7.41 nM | Nc1cnnc2cc(-c3cc(B(O)O)ccc3N3CCNS3(=O)=O)ccc12 [Example 165, [3-(4-aminocinnolin-7-yl)-4-(1,1-dioxo-1,2,5-thiadiazolidin-2-yl)phenyl]boronic Acid]
1.66 nM | Nc1cnnc2cc(-c3cc(B(O)O)ccc3Oc3ccc(F)cc3)ccc12 [Example 167, [3-(4-aminocinnolin-7-yl)-4-(4-fluorophenoxy)phenyl]boronic Acid Formic Acid Salt]
1.32 nM | Nc1cnnc2cc(-c3cc(B(O)O)ccc3Oc3cncs3)ccc12 [Example 168, [3-(4-aminocinnolin-7-yl)-4-(1,3-thiazol-5-yloxy)phenyl]boronic Acid Formic Acid Salt]
1.45 nM | Nc1cnnc2cc(-c3cc(B(O)O)ccc3Oc3nccs3)ccc12 [Example 169, [3-(4-aminocinnolin-7-yl)-4-(1,3-thiazol-2-yloxy)phenyl]boronic Acid Formic Acid Salt]
1.07 nM | CC1(C)Cc2cc(B(O)O)cc(-c3ccc4c(N)cnnc4c3)c2O1 [Example 170, [7-(4-aminocinnolin-7-yl)-2,2-dimethyl-2,3-dihydro-1-benzofuran-5-yl]boronic Acid Formic Acid Salt]
1.29 nM | Cc1ncc(Oc2ccc(B(O)O)cc2-c2ccc3c(N)cnnc3c2)s1 [Example 171, [3-(4-aminocinnolin-7-yl)-4-(2-methylthiazol-5-yl)oxy-phenyl]Boronic Acid Formic Acid Salt]
